Converted amounts (≈) assume the structure as drawn. Like-named read-outs stand apart in the source and are kept apart here. Where a SMILES comes first, the peptide text is derived from it. [ ]: non-standard residue; d: D form. Nspe = C[C@H](NCC(=O)O)c1ccccc1; NHexGly = CCCCCCNCC(=O)O; Nlys = NCCCCNCC(=O)O
What was measured:
M. bovis BCG = conditions: broth microdilution, 10^6 CFU/mL, 7 days, 37°C, OD595 and visual
M. tuberculosis CSU87 = conditions: 7 days, CFU enumeration, three independent experiments
[1] = tested on: MDR clinical isolate M. tuberculosis CSU87; conditions: broth microdilution, 10^6 CFU/mL, 7 days, 37°C, OD595 and visual

Row | Structure (SMILES) | MIC BCG (M. bovis BCG) | killing of CSU87 (M. tuberculosis CSU87; 2 × MIC (8 mg/L)) | killing of CSU87 (M. tuberculosis CSU87; 4 × MIC (16 mg/L)) | MIC CSU87 [1]
1 | CCCCCCNCC(=O)N(CC(=O)N(CCCCN)CC(N)=O)[C@@H](C)c1ccccc1 [BM 1] | 16 to 32 µg/mL |  |  | 
2 | CCCCCCNCC(=O)N(CC(=O)N(CCCCN)CC(=O)N(CCCCCC)CC(=O)N(CC(=O)N(CCCCN)CC(N)=O)[C@@H](C)c1ccccc1)[C@@H](C)c1ccccc1 [BM 2] (H-[NHexGly][Nspe][Nlys][NHexGly][Nspe][Nlys]-NH2) | 2 to 4 µg/mL | > 99% | 99.9% | 4 µg/mL (≈ 4.55 µM)
3 | CCCCCCNCC(=O)N(CC(=O)N(CCCCN)CC(=O)N(CCCCCC)CC(=O)N(CC(=O)N(CCCCN)CC(=O)N(CCCCCC)CC(=O)N(CC(=O)N(CCCCN)CC(N)=O)[C@@H](C)c1ccccc1)[C@@H](C)c1ccccc1)[C@@H](C)c1ccccc1 [BM 3] (H-[NHexGly][Nspe][Nlys][NHexGly][Nspe][Nlys][NHexGly][Nspe][Nlys]-NH2) | 4 to 8 µg/mL |  |  | 16 µg/mL (≈ 12.2 µM)
